Data: publication PMC10584170, “Machine learning-based phenotypic imaging to characterise the targetable biology of Plasmodium falciparum male gametocytes for the development of transmission-blocking antimalarials” (PLOS Pathogens, 2023)

Columns and labels:
[1] = system: P. falciparum male gametocytes; assay: P. falciparum Dual Gamete Formation Assay (PfDGFA), male readout (exflagellation); format: cell-based, Plasmodium falciparum NF54; details: for Average inhibition male (%): average of replicates; for % inhibition male (individual replicates) R1: replicate R1; for % inhibition male (individual replicates) R3: replicate R3; for % inhibition male (individual replicates) R4: replicate R4; for Activity: hit = >50% inhibition in male or female readout in at least 3 replicates, 0 = no class assigned
Summary of the method: (§1)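 Two sex-specific readouts come from one well: male exflagellation centres recorded by brightfield video right after activation, and female gametes scored by Cy3-anti-Pfs25 fluorescence after 24 h at 28°C.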

[2] = system: P. falciparum female gametocytes; assay: P. falciparum Dual Gamete Formation Assay (PfDGFA), female readout (Pfs25-positive female gametes); format: cell-based, Plasmodium falciparum NF54; details: for Average inhibition female (%): average of replicates; for % inhibition female (individual replicates) R1: replicate R1; for % inhibition female (individual replicates) R3: replicate R3; for % inhibition female (individual replicates) R4: replicate R4
Summary of the method: as §1

[3] = 2µM, 24h preincubation with gametocytes prior to induction of gametogenesis
[4] = 2µM, 24h preincubation, hits selected on >50% inhibition in the male readout across replicates
[5] = PfDGFA at 2µM, 24h preincubation
[6] = 2µM, 24h preincubation, hits selected on >50% inhibition in the female readout across replicates
[7] = 2µM, 24h preincubation, number of replicates with >50% inhibition in the male readout
[8] = 2µM, 24h preincubation, number of replicates with >50% inhibition in the female readout
[9] = PfDGFA at 2µM, 24h preincubation with gametocytes prior to induction of gametogenesis
[10] = 2µM, 24h preincubation with gametocytes

Row | SMILES | Average inhibition male (%) [1, 3] [%] | % inhibition male (individual replicates) R1 [1, 3] [%] | % inhibition male (individual replicates) R3 [1, 3] [%] | % inhibition male (individual replicates) R4 [1, 3] [%] | HitlevelM [1, 4] | Activity [1, 5] | Average inhibition female (%) [2, 3] [%] | % inhibition female (individual replicates) R1 [2, 3] [%] | % inhibition female (individual replicates) R3 [2, 3] [%] | % inhibition female (individual replicates) R4 [2, 3] [%] | HitlevelF [2, 6] | % inhibition male (individual replicates) R1 [1, 9] [%] | % inhibition male (individual replicates) R3 [1, 9] [%] | % inhibition male (individual replicates) R4 [1, 9] [%] | Average inhibition male (%) [1, 5] [%] | % inhibition female (individual replicates) R1 [2, 9] [%] | % inhibition female (individual replicates) R3 [2, 9] [%] | % inhibition female (individual replicates) R4 [2, 9] [%] | Average inhibition female (%) [2, 5] [%] | also measured
1 | COc1cc2ccccc2c(OC)c1CCNCCCCNCCc1c(OC)cc2ccccc2c1OC.CS(=O)(=O)O [TCMDC-137842] | 40.8 | 35.9 | -0.8 | 68.2 | 2 | 0 | 13.3 | 16.6 | -7.2 | 21.8 | 0 | – | – | – | – | – | – | – | – | –
2 | C/C=C/COc1ccc2ccccc2c1CNCCCCCCCCNCc1c(OC/C=C/C)ccc2ccccc12.CS(=O)(=O)O.O [TCMDC-137844] | 25.4 | 38.1 | 0.24 | 61.8 | – | – | 23.4 | 25.6 | 6.4 | 40.3 | – | – | – | – | – | – | – | – | – | HitlevelM [1, 7]: 1; HitlevelF [2, 8]: 0
3 | CC(C)c1cc2c(ccc3nc(N)nc(N)c32)[nH]1 [TCMDC-137847] | 0.8 | 37.4 | -19.2 | -31.8 | 0 | 0 | 11.1 | 19.6 | 6.0 | 11.3 | 0 | – | – | – | – | – | – | – | – | –
4 | CCc1cc2c3c(N)nc(N)nc3ccc2n1CC [TCMDC-137851] | -13.9 | 35.0 | -28.2 | -58.5 | 0 | 0 | 9.4 | 20.5 | -5.1 | 10.4 | 0 | – | – | – | – | – | – | – | – | –
5 | Cl.Nc1nc(N)c2c(ccc3c2cnn3S(=O)(=O)N2CCCC2)n1 [TCMDC-137852] | – | – | – | – | – | – | – | – | – | – | – | 28.2 | -12.1 | -13.1 | 5.0 | 0.4 | -21.8 | -7.9 | -7.0 | –
6 | Cl.Nc1nc(N)c2c(ccc3nn(S(=O)(=O)N4CCCC4)cc32)n1 [TCMDC-137854] | – | – | – | – | – | – | – | – | – | – | – | 39.1 | 32.8 | 30.1 | 33.2 | -6.1 | 12.6 | -10.2 | -1.3 | –
7 | CCCn1cc2c(ccc3nc(N)nc(N)c32)n1 [TCMDC-137858] | – | – | – | – | – | – | – | – | – | – | – | 0.8 | -0.8 | -25.8 | 1.4 | 9.1 | -22.2 | 2.7 | -1.2 | –
8 | CC(C)n1cc2c(ccc3nc(N)nc(N)c32)n1 [TCMDC-137865] | – | – | – | – | – | – | – | – | – | – | – | 12.4 | -22.8 | -29.8 | -10.2 | 4.2 | -9.2 | -1.6 | -0.07 | –
9 | Nc1nc(N)c2c(Cl)c(N3CCOCC3)ccc2n1 [TCMDC-137868] | -14.2 | 5.7 | -9.7 | -52.5 | 0 | 0 | 8.8 | 9.4 | -3.6 | -2.4 | 0 | – | – | – | – | – | – | – | – | –
10 | Cl.Nc1nc(N)c2c(ccc3c2ccn3C2CCCCC2)n1 [TCMDC-137871] | 11.6 | 19.6 | 1.6 | -3.1 | 0 | 0 | 10.6 | -11.4 | 35.4 | 4.9 | 0 | – | – | – | – | – | – | – | – | –
11 | Cc1ccc2c(Cc3cnc(N)nc3N)cc(C)c(N)c2n1.Cl [TCMDC-137878] | – | – | – | – | – | – | – | – | – | – | – | 10.8 | – | 0.8 | 15.3 | 1.9 | 4.6 | 2.9 | -0.2 | –
12 | Cl.N=C(N)NN=Cc1c2ccc(Cl)cc2c(Cl)c2ccc(Cl)cc12 [TCMDC-137884] | – | – | – | – | – | – | – | – | – | – | – | – | – | – | – | – | – | – | – | Average inhibition male (%) [1, 10]: 92.6%; % inhibition male (individual replicates) R1 [1, 10]: 97.0%; % inhibition male (individual replicates) R3 [1, 10]: 80.2%; % inhibition male (individual replicates) R4 [1, 10]: 97.6%; Average inhibition female (%) [2, 10]: 57.1%; % inhibition female (individual replicates) R1 [2, 10]: 33.5%; % inhibition female (individual replicates) R3 [2, 10]: 56.7%; % inhibition female (individual replicates) R4 [2, 10]: 75.9%
13 | O=C(NCc1ccccc1[S+]([O-])c1ccccc1CO)C(F)(F)F (stereo not drawn) [TCMDC-137886] | – | – | – | – | – | – | – | – | – | – | – | 18.6 | -28.2 | -31.1 | -8.4 | 9.6 | -29.2 | 19.1 | 3.3 | –
14 | Cl.Nc1ncc(Cc2cc(Cl)c(N)c3ncccc23)c(N)n1 [TCMDC-137889] | – | – | – | – | – | – | – | – | – | – | – | 6.1 | -28.8 | -13.1 | -7.9 | 12.6 | -23.8 | 5.5 | -0.8 | –
15 | Cl.c1ccc2c(NCCCCCCCNc3ccnc4ccccc34)ccnc2c1 [TCMDC-137897] | 23.4 | 24.9 | -14.5 | 54.2 | – | – | 26.1 | 24.7 | -5.3 | 43.2 | – | – | – | – | – | – | – | – | – | HitlevelM [1, 7]: 1; HitlevelF [2, 8]: 0
